Values after ≈ are worked out from the molar mass of the structure shown.
How the values were obtained:
[1] = Solubility test in dissolution medium (pH 1.2); format: physicochemical; conditions: dissolution medium (pH 1.2) of Korea Pharmacopeia, simulated gastric fluid, thermodynamic from solid; dissolution medium pH 1.2, shaken at 25° C. for 24 hours, HPLC; Mean ± SD, n = 3
Experimental: Samples, equivalent to 30 mg of itraconazole, was added to […] of the test solution. The test solution used was the dissolution medium (pH 1.2) for dissolution test of Korea Pharmacopeia. After the samples were ultrasonicated for 30 minutes, they were shaked at 25° C. for 24 hours. Then, they were centrifuged at 3000 rpm for 20 minutes. The obtained supernatant was filtered using a 0.45 μm membrane filter, followed by 10-fold dilution with methanol. The content of itraconazole was measured by HPLC.

[2] = cited from earlier work

Question: With CCC(C)n1ncn(-c2ccc(N3CCN(c4ccc(OCC5COC(Cn6cncn6)(c6ccc(Cl)cc6Cl)O5)cc4)CC3)cc2)c1=O (racemic) [Itraconazole, (±)-cis-4-[4-[4-[4-[[2-(2,4-dichlorophenyl)-2-(1H-1,2,4-triazole-1-yl-methyl)-1,3-dioxolane-4-yl]methoxy]phenyl]-1-piperazinyl]phenyl]-2,4-dihydro-2-(1-methylpropyl)-3H-1,2,4-triazole-3-one] as the compound, how does the solubility at 24 h [1] read?
Answer: 1.5 ± 0.7 µg/mL (≈ 2.13 µM)

Question: And the Solubility in dichloromethane ([2]; dichloromethane)?
Answer: 239000 µg/mL (≈ 339000 µM)

Question: What about the Solubility in water ([2]; water) of the same compound?
Answer: less than 1 μg/ml

From patent US20050226924A1, “Composition comprising itraconazole for oral administration” (priority 2004, published 2005)
